Source: ChEMBL document CHEMBL3880412, “Indole derivatives as CFTR modulators” (2009)

Tested on: Cystic fibrosis transmembrane conductance regulator (Homo sapiens), P13569 [F508del]
Experiment: Correction activity at CFTR F508 deletion mutant (unknown origin) expressed in mouse NIH/3T3 cells assessed as increase in cAMP/genistein-dependent current amplitude at 10 uM incubated for 10 mins at 37 degC by patch clamp method relative to control
Type: cell-based

Sequence of Cystic fibrosis transmembrane conductance regulator (Homo sapiens), P13569 [F508del] (P13569 as listed by the source): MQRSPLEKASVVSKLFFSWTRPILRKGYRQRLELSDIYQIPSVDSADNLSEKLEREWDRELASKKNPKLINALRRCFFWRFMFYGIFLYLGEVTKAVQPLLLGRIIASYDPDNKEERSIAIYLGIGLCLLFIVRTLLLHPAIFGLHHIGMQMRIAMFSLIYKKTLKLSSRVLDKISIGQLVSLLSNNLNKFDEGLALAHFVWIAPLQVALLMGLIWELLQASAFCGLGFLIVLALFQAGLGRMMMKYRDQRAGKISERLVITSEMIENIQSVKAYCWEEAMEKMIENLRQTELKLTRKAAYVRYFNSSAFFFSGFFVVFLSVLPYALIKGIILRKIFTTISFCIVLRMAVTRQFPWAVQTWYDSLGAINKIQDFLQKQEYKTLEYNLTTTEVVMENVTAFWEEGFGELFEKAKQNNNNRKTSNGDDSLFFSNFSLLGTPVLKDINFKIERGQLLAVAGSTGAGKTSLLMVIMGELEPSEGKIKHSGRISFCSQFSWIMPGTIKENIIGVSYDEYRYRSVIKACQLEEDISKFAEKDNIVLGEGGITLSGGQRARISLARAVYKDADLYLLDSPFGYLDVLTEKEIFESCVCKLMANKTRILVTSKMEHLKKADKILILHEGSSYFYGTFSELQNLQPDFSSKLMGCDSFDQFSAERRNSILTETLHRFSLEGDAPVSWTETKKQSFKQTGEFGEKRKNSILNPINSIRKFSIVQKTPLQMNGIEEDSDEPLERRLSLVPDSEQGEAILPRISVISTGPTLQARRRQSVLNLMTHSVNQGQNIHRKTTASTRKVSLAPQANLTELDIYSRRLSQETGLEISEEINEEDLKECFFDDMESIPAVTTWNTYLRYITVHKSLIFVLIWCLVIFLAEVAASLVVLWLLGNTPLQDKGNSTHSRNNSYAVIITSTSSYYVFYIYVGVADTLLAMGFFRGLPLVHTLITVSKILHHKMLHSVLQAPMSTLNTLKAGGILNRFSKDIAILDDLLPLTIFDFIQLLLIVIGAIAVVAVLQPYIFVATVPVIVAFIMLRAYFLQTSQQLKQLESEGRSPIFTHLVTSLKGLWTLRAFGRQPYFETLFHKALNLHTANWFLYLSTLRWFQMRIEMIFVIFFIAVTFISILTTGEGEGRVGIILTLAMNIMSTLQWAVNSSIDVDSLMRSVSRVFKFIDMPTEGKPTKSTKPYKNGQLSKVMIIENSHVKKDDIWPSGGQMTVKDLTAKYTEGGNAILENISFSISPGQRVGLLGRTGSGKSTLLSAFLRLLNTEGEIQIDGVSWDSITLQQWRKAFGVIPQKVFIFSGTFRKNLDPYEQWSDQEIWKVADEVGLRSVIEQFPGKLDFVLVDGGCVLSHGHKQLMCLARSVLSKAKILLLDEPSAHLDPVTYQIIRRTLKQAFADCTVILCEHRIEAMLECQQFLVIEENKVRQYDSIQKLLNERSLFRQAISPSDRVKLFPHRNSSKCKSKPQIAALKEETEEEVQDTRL

Row | Structure (SMILES) | Emax [%]
1 | CC(C)(C)c1cc2cc(NC(=O)C3(c4ccc5c(c4)OC(F)(F)O5)CC3)c(F)cc2n1CC[N+](C)(C)C | 122
2 | CC(C)(C)c1cc2cc(NC(=O)C3(c4ccc5c(c4)OCO5)CC3)c(F)cc2n1C[C@@H](O)CO | 120 to 132
